Source: US8049035B2, “Crystalline potassium salt of lipoxin A4 analogs” (Bayer Pharma AG, priority 2006, dated 2011)
Structures can show the parent of a compound that is named as a salt.

Key:
Assay type in all cases: physicochemical
[1] = Salt screening assays of the acid (IIa): stability of the salts
Source text: The following describes the salt screening assays in more detail:
Many inorganic cations were investigated to determine their ability to form a stable crystalline salt of the acid (IIa), including potassium, sodium, calcium, aluminium, magnesium, lithium, and zinc.
Several organic amines were investigated, including N-methylglucamine, diethanolamine, ethylenediamine, choline, lysine, and arginine.
In addition to the foregoing, it was investigated to form a mixed salt of the acid of Formula (IIa) with polyvalent inorganic cations and organic acids.
In general, the salt screening assay included the variability of the following different test parameters:
i) Type of cation-compound utilized (e.g., as carbonates, hydroxides, methylates, ethylates).
ii) Type of solvent utilized.
iii) Specific addition or exclusion of water (to assist the formation of hydrates or anhydrates).
iv) Type of crystallization utilized (cooling crystallization, antisolvent crystallization, or evaporation crystallization, and combinations thereof).
v) Type of screening (manual screening as well as high throughput screening).

[2] = Chemical stability of solid state forms under stress at 40° C./75% rH over 4 weeks (HPLC purity); settings: for HPLC-purity: 40° C./75% RH; for chemical stability under stress (in words): 40° C./75% rH
Experimental: The chemical stability of the anhydrate and the monohydrate of the potassium salt of Formula (Ia) of the invention as well as the dehydrated form I of the potassium salt (Ia) of the invention were assessed by comparing the stability under stress at 40° C./75% rH over a period of 4 weeks.

[3] = Dynamic vapor sorption / hygroscopicity studies (automated water sorption analyzer); settings: 25° C.; for relative humidity up to which the form is stable: sorption cycle
Experimental: The transformation of the monohydrate to the dihydrate form and vice versa occurs quickly and is well defined at 25° C. and at 40° C. This was shown by dynamic vapor sorption investigations. For example, during pre-drying of the monohydrate at 25° C. and 0% relative humidity, 4.0% water is released from the monohydrate. […] Between 20% and 40% relative humidity, one mole of water is absorbed, resulting in the formation of the monohydrate. The monohydrate is stable up to approximately 50% relative humidity and then is transformed into the dihydrate by absorption of a second mole of water between 50% and 60% relative humidity. The dihydrate is the stable form up to 98% relative humidity at 25° C. During the desorption cycle between 40% and 50% relative humidity, the transformation into the monohydrate takes place. The formed monohydrate is existent up to 10% relative humidity. Between 0% and 10% relative humidity the dehydration of the monohydrate to the dehydrated form II occurs. No significant differences between the two cycles were observed.
The hygroscopicity with respect to the transformation of the monohydrate and dihydrate was re-investigated between 45% and 55% relative humidity using smaller steps for the relative humidity. […] At 40° C. the reversible transformation between the monohydrate and the dihydrate is between 57% and 59% relative humidity, approximately 10% higher than at 25° C.
Also, the transformation of the anhydrate form of the potassium salt (Ia) to the hydrate form was shown by dynamic vapor sorption investigations at 25° C. Up to 40% relative humidity the anhydrate was stable. Between 40% and 60% relative humidity approximately two moles of water are absorbed, resulting in the formation of the dihydrate.
Data collection for the hygroscopicity studies was carried out in an automated water sorption analyzer. Approximately 20 mg of the investigated solid state form of the crystalline potassium salt (Ia) was exposed to a continuous flow of nitrogen with predetermined and constant relative humidity. The rate of sweep gas was set at 200 cm^3/min. For a basic assay, two full cycles (sorption/desorption) were measured at 25° C. The measurement was started at 0% relative humidity in order to remove surface water. Once the constant mass was achieved, the next humidity was automatically set. The water sorption/desorption was investigated in steps of 10% between 0% and 90% relative humidity under the criteria for initiation of the first step as set forth herein. Additionally, the sorption at about 98% relative humidity was investigated. Data was acquired using the DVSWin software. […]

Structure (SMILES) | stability compared with other salts and the free acid (in words) [1] | HPLC-purity ([2]; 0 weeks (start)) | HPLC-purity ([2]; 2 weeks) | HPLC-purity ([2]; 4 weeks) | chemical stability under stress (in words) ([2]; 4 weeks) | relative humidity up to which the form is stable [3] | water released during pre-drying ([3]; 0% relative humidity, gives dehydrated form II)
O=C(O)COC[C@H](O)[C@H](O)/C=C/C=C/C#C/C=C/[C@H](O)COc1ccc(F)cc1 [(Ia), potassium 2-((2S,3R,4E,6E,10E,12S)-13-(4-fluorophenoxy)-2,3,12-trihydroxytrideca-4,6,10-trien-6-ynyloxy)acetate] | substantially more stable than every other salt prepared |  |  |  |  |  | 
O=C(O)COC[C@H](O)[C@H](O)/C=C/C=C/C#C/C=C/[C@H](O)COc1ccc(F)cc1 [K-salt, dehydrated form I, potassium 2-((2S,3R,4E,6E,10E,12S)-13-(4-fluorophenoxy)-2,3,12-trihydroxytrideca-4,6,10-trien-6-ynyloxy)acetate] |  | 97.8% | 97.1% | 95.3% |  |  | 
O=C(O)COC[C@H](O)[C@H](O)/C=C/C=C/C#C/C=C/[C@H](O)COc1ccc(F)cc1 [K-salt, Anhydrate, potassium 2-((2S,3R,4E,6E,10E,12S)-13-(4-fluorophenoxy)-2,3,12-trihydroxytrideca-4,6,10-trien-6-ynyloxy)acetate] |  | 99.6% | 99.7% | 99.7% | no sign of degradation | Up to 40 % relative humidity | 
O=C(O)COC[C@H](O)[C@H](O)/C=C/C=C/C#C/C=C/[C@H](O)COc1ccc(F)cc1 [dihydrate, potassium 2-((2S,3R,4E,6E,10E,12S)-13-(4-fluorophenoxy)-2,3,12-trihydroxytrideca-4,6,10-trien-6-ynyloxy)acetate] |  |  |  |  |  | up to 98 % relative humidity | 
O=C(O)COC[C@H](O)[C@H](O)/C=C/C=C/C#C/C=C/[C@H](O)COc1ccc(F)cc1 [K-salt, Monohydrate, potassium 2-((2S,3R,4E,6E,10E,12S)-13-(4-fluorophenoxy)-2,3,12-trihydroxytrideca-4,6,10-trien-6-ynyloxy)acetate] |  | 99.7% | 99.6% | 99.7% | no sign of degradation | approximately 50 % relative humidity | 4.0%
